# Laboratory results from patent US11638709B2, “Rucaparib, Talazoparib, Veliparib, Olaparib and AZD 2461 for treating impaired skin wound healing” (AKRIBES BIOMEDICAL GMBH, priority 2017, dated 2023).
# “Also recorded” adds a separate entry of the source.
# Assays:
# Format in all cases: cell-based
# [1] = test system: alpha-smooth muscle actin (α-SMA) in human dermal fibroblasts; assay: Immunolocalization of alpha-smooth muscle actin in 2D HDF culture; conditions: FIG. 16; wound exudates #91 and #55; talazoparib 0.1 μM
# Method: (§1) Primary human dermal fibroblasts (HDF) were purchased from CELLnTEC, Bern. They were routinely grown in Dulbecco's modified Eagle's medium (DMEM) containing 10% FCS, 2 mM glutamine, and 100 U/ml penicillin/100 μg/ml streptomycin. Media, antibiotics, and glutamine were bought from Lonza. The cells were used at passage 5-15. Cells were trypsinized and seeded at 5000 cells/well in 200 μl into the inner wells of 96-well plates. The outer wells were loaded with sterile water. The cells were allowed to adhere overnight and then incubated for 72 hours at 37° C. under the following conditions: graded compound concentrations or 20 ng/ml PDGF-BB (Tonbo Biosciences) in the absence or presence of different dilutions of sterile-filtered WE in medium. For control samples, 200 μl medium was added instead of specific stimuli. Alternatively, the cells were seeded into 384-well plates at 2500 cells/well directly together with test compounds or growth factors and WE or medium in a total volume of […].
# After fixation with paraformaldehyde, the cells were incubated for 1 hour at room temperature with a monoclonal mouse-anti-human antibody against alpha-smooth muscle actin (α-SMA) from e-Bioscience, washed 3 times with PBS and developed with an Alexa Fluor-labelled donkey-anti-mouse IgG (Molecular Probes). […]
# [2] = test system: primary human dermal fibroblasts (HDF); assay: Fibroblast-derived matrix (FDM) formation assay (3D) with wound exudate; conditions: for 3D fibroblast culture (FDM formation), effect of PARP inhibitors: FIG. 7, WE from patient #78
# Method: HDF cells were seeded at 5000 cells/well on day −3 into 96-well tissue culture plates (1250 cells/well for 384-well plates), which had been pre-coated for 1 hour at 37° C. with 0.2% gelatin solution (Sigma). When the cells reached confluence (=day 0), a matrix promoting supplement (vitamin C: 2-phospho-L-ascorbic acid trisodium salt, 100 μg/ml; Sigma) was added together with test samples containing PDGF-BB, TGF-ß1 or graded concentrations of compounds −/+WE as described for the HDF proliferation assay. After 4 days, medium was replaced by fresh vitamin C—and stimulus—as well as compound-containing medium, maintaining the conditions initiated on day 0. TGF-ß1 and PDGF-BB were included as positive controls to promote FDM formation and cell growth, respectively. After a total incubation time of 8 days, FDM production was measured in fixed cultures via SRB staining and evaluated as described above. In some cases, the experiment was stopped and evaluated already on day 4.
# (§2) Low molecular weight compounds (see list in Table 1) were dissolved in DMSO (Bioreagent for cell culture, Sigma) at 10 mM or 100 mM and diluted at least 1:1000 in medium for cellular assays (final DMSO concentration ≤0.1%).
# (§3) Cells were incubated with compounds for 72 hours in proliferation assays and up to 8 days for FDM assay (refreshed after 4 days). When compounds were tested for their effect on WE stimulation, the incubation of cells with compounds was started and ended simultaneously with WE-incubation.
# [3] = test system: primary human dermal fibroblasts (HDF); assay: Primary human dermal fibroblast (HDF) proliferation assay (2D) with or without wound exudate; conditions: for fibroblast proliferation in the absence of WE: FIG. 11, 2D fibroblast culture without WE (control); for HDF proliferation in the presence of WE #78, combined with PDGF / HDF proliferation in the presence of WE #78 / HDF proliferation in the absence of WE: FIG. 14; for HDF proliferation in the presence of WE #78, combined with PDGF: plus PDGF 20 ng/ml; for HDF proliferation in the presence of WE #78 / HDF proliferation in the absence of WE: veliparib 10 μM, talazoparib 1 μM, PDGF 20 ng/ml; for HDF proliferation in the absence of WE / effect on PDGF-induced induction of proliferation in the absence of WE: no WE; for HDF proliferation with wound exudate #78, plus PDGF / HDF proliferation with wound exudate #78: FIG. 15; for HDF proliferation with wound exudate #78, plus PDGF: compound + PDGF 20 ng/ml in medium + WE #78; for HDF proliferation with wound exudate #78: compound in medium + WE #78; for wound exudate-induced inhibition of fibroblast proliferation: FIG. 20, with wound exudate; for effect on PDGF-induced induction of proliferation in the absence of WE: with PDGF
# Method: as §1
# (§4) At the end of the 72-hour incubation period, supernatants were removed for the determination of IL-1ß, and the cells were fixed with 4% paraformaldehyde (Morphisto) for 15 minutes at room temperature and washed 3 times with PBS. A control plate was fixed after the overnight adherence of the cells (day 1) to determine the starting cell number.
# Total cellular protein was determined as a measure of cell number by staining the fixed cells with sulforhodamine B (SRB, Sigma). A 0.4% SRB solution in 1% acetic acid was added to the wells for 30 minutes. The wells were then washed with 1% acetic acid until the wash solution remained colorless. […] The average absorbance of the sample representing the day 1 starting cell number (for 96-well plates) was subtracted from the absorbance values of the WE-treated cells.
# All experiments were carried out in triplicate for each sample and concentration, and means±standard deviation (SD) were used for the evaluation of the experiment. Results are expressed as percentage of control values for unstimulated cells.
# as §2, §3
# [4] = test system: IL-1ß secretion by primary human dermal fibroblasts; assay: IL-1ß secretion in the HDF proliferation assay with wound exudate (ELISA); conditions: FIG. 20
# Method: as §4
# IL-1ß levels were determined with a commercial ELISA kit. The amount of IL-1ß contained in the wound exudate added to the cells was subtracted from the total IL-ß in the supernatants in order to determine the cytokine secreted by the cells.
# [5] = FIG. 4, 3D fibroblast culture with WE
SMILES,"formation of fibroblast-derived matrix, optically evaluated by microscopy [2, 5]","3D fibroblast culture (FDM formation), effect of PARP inhibitors [2]","2D fibroblast culture (HDF proliferation), effect of PARP inhibitors ([3]; FIG. 8, WE from patient #78)","2D fibroblast culture (HDF proliferation), effect of PARP inhibitors ([3]; FIG. 9, WE from patient #43)","2D fibroblast culture (HDF proliferation), effect of PARP inhibitors ([3]; FIG. 10, WE from patient #78)",fibroblast proliferation in the absence of WE [3],"2D fibroblast culture, PARP inhibitor effect ± dexamethasone ± Vit. C ([3]; FIG. 12, WE from patient #78)","2D fibroblast culture, PARP inhibitor effect ± dexamethasone ± Vit. C ([3]; FIG. 13, WE from patient #43)","HDF proliferation in the presence of WE #78, combined with PDGF [3]",HDF proliferation in the presence of WE #78 [3],HDF proliferation in the absence of WE [3],"HDF proliferation with wound exudate #78, plus PDGF [3]",HDF proliferation with wound exudate #78 [3],wound exudate-induced inhibition of fibroblast proliferation [3],effect on PDGF-induced induction of proliferation in the absence of WE [3],wound exudate-induced IL-1ß secretion [4],also measured
Cn1ncnc1[C@H]1c2n[nH]c(=O)c3cc(F)cc(c23)N[C@@H]1c1ccc(F)cc1 [Talazoparib],“cleaned up” WE-induced fibroblast matrix inhibition,most active of the PARP inhibitors tested in 3D culture,strong and consistent positive effect,strong and consistent positive effect,strong and consistent positive effect,"weak inhibitory activity; also recorded: either no effect on fibroblast proliferation in the absence of wound exudate, or only a marginal effect",strongly beneficial effects,strongly beneficial effects,additively or synergistically enhanced by PDGF,induce proliferation,no or even an inhibitory effect,even further enhanced by the addition of PDGF,dose-dependent increase of HDF proliferation,enhanced cell proliferation,either had no effect on PDGF-induced induction of proliferation or showed inhibition of the PDGF effect,reducing IL-1ß secretion,"expression of α-SMA [1]: able to induce expression of α-SMA; formation of fibroblast-derived matrix, optically evaluated by microscopy ([2]; FIG. 4, 3D fibroblast culture with WE, listed as talazoparib): particularly strong and beneficial; 3D fibroblast culture (FDM formation), effect of PARP inhibitors ([2]; listed as talazoparib): strong and consistent positive effect"
"C[C@]1(c2nc3c(C(N)=O)cccc3[nH]2)CCCN1 [Veliparib, 2-((2R)-2-methylpyrrolidin-2-yl)-1H-benzimidazole-4-carboxamide]",“cleaned up” WE-induced fibroblast matrix inhibition,strong and consistent positive effect,strong and consistent positive effect,strong and consistent positive effect,strong and consistent positive effect,"either no effect on fibroblast proliferation in the absence of wound exudate, or only a marginal effect",strongly beneficial effects,strongly beneficial effects,additively or synergistically enhanced by PDGF,induce proliferation,no or even an inhibitory effect,even further enhanced by the addition of PDGF,dose-dependent increase of HDF proliferation,enhanced cell proliferation,either had no effect on PDGF-induced induction of proliferation or showed inhibition of the PDGF effect,reducing IL-1ß secretion,"formation of fibroblast-derived matrix, combination with dexamethasone ([2]; FIG. 4, 3D fibroblast culture with WE, microscopy): superior to each substance alone; formation of fibroblast-derived matrix, veliparib and glucocorticoids combined ([2]; FIG. 5, WE of patient #78 (diabetes, immunosuppression after kidney transplantation)): enhances the effect of glucocorticoids; formation of fibroblast-derived matrix, veliparib and glucocorticoids combined ([2]; FIG. 6, WE of patient #49 (non-diabetic, non-immunosuppressed)): could be enhanced with glucocorticoids, but not vice versa; WE-induced inhibition of fibroblast proliferation (2D HDF proliferation) ([3]; FIG. 1, wound exudate #78 (diabetic patient)): completely reversed inhibition of wound exudate (WE)-induced fibroblast proliferation; human dermal fibroblast proliferation (2D), effect of veliparib ([3]; FIG. 2, WE from patients #49, #43, #78, #27): most prominent in the two patients with diabetes; fibroblast 2D culture, reproducibility of effect ([3]; FIG. 3, WE samples #77 and #78 of one patient (day 1 and day 8), patient on prednisolone): reproducible in different samples of the same patient"
